The text below walks through data of US20240299591A1, “Antimicrobial Peptides and Their Use” (priority 2021, published 2024).

For assay [1], the system named is YFP-A. fumigatus. The assay can be described thus: Ex vivo porcine cornea infected with YFP-A. fumigatus, topical treatment, confocal live-cell imaging. Also on record: species or system Aspergillus fumigatus. How it is done:
FIG. 6 contains images of ex vivo corneas infected with YFP-A. fumigatus treated with either PBS or MFIGAF001. All cornea were treated with one drop of reagent every 2 hours for the first 8 hours, then one drop every 8 hours for the remaining 16 hours. Treatment was continued for 72 hours with this treatment regimen. MFIGAF001 was used at 100 mg/L.
FIG. 7 contains images of an ex vivo cornea infected with A. fumigatus treated with MFIGAF001, using the fluorescent confocal live-cell imaging approach with a yellow fluorescent protein (YFP). The yellow fluorescent signal (yellow in the original graphs, white reproduced here) indicates the live fungal burden that penetrated into the corneal tissue. All cornea were treated with one drop of reagent every 2 hours for the first 8 hours, then one drop every 8 hours for the remaining 16 hours. Treatment was continued for 72 hours with this treatment regimen. MFIGAF001 was used at 100 mg/L.
FIG. 8 contains images of an ex vivo cornea infected with A. fumigatus treated with either Natamycin or MFIGAF001, using the fluorescent confocal live-cell imaging approach with a YFP. All cornea were treated with one drop of reagent every 2 hours for the first 8 hours, then one drop every 8 hours for the remaining 16 hours. […]
YFP-A. fumigatus spores were harvested from 3 days old cultures grown on SAB agar at 37° C. in PBST and quantified using a haemocytometer. […]

Assay [2] has as its system C. auris. Type of assay: cell-based. As for the experimental part:
(§1) Candida strains used were grown on SAB agar at 37° C. for 3 days, and the Cryptococcus strain was grown on SAB agar at 37° C. for 6 days. Cells were harvest using sterile inoculation loop by taking a single colony and resuspending in phosphate-buffered saline supplemented with 0.1% tween-20 (PBST). The concentration of cells was then quantified with a haemocytometer. For the determination of the minimum inhibitory concentration, cell density was adjusted to 10^6 cells/mL with 20% liquid Vogel's medium.

Assay [3] relates to C. albican. Type of assay: cell-based. How it is done:
as §1

Assay [4] concerns C. inconspicua (ATCC 16783). Format: cell-based. How it is done:
as §1

The test system of assay [5] is C. glabrata (NCPF 3309). Format: cell-based. How it is done:
as §1

Assay [6] deals with C. krusei (ATCC 6258). Format: cell-based. As for the experimental part: as §1

Values after ≈ are worked out from the molar mass of the structure shown. “Also recorded” adds a separate entry of the source. Where a SMILES comes first, the peptide text is derived from it.

Take `N=C(N)NCCC[C@@H]1NC(=O)CNC(=O)[C@H](Cc2c[nH]c3ccccc23)NC(=O)[C@H](Cc2ccccc2)NC(=O)[C@H](Cc2c[nH]c3ccccc23)NC(=O)[C@@H](Cc2ccccc2)NC(=O)[C@H](CCCCN)NC(=O)[C@H](CCCCN)NC1=O` [MFIGAF001, Cyclo(Arg-Lys-Lys-phe-Trp-Phe-Trp-Gly)] (HELM PEPTIDE1{F.W.G.R.K.K.[dF].W}$PEPTIDE1,PEPTIDE1,1:R1-8:R2$$$V2.0): in assay [1] (100 mg/L topical drops, 72 h of treatment, vs saline), the “Live fungal burden in ex vivo cornea” value is reported as “reduced fungal burden; also recorded: elimination of live fungal burden”. Besides, in assay [1] (MFIGAF001 100 mg/L, Natamycin 120 mg/L, 72 hours), the “Efficacy ex vivo compared with Natamycin” value is “comparable efficacy”. Besides, the MIC was determined as 2 µM (≈ 2.27 µg/mL) in assay [2]; 2 µM (≈ 2.27 µg/mL) in assay [3]; 2 µM (≈ 2.27 µg/mL) in assay [4]; 3.9 µM (≈ 4.43 µg/mL) in assay [5]; 3.9 µM (≈ 4.43 µg/mL) in assay [6].
